Laboratory results published in patent US5624923A, “Tricyclic diazepine vasopressin antagonists and oxytocin antagonists” (priority 1995, dated 1997).
Like-named read-outs stand apart in the source and are kept apart here. Blank lines part the entries; values can stand above or below the compound they belong to.

Experiments:
Rat Hepatic V1 Receptors = target: T1, Rat Hepatic V1 Receptors (Rattus norvegicus, UniProt P30560); assay: Binding Assay to Rat Hepatic V1 Receptors
T1 construct: Rat liver plasma membranes expressing the vasopressin V1 receptor subtypes; from tissue; host or cells: rat liver plasma membranes
T1 sequence (P30560 whole entry): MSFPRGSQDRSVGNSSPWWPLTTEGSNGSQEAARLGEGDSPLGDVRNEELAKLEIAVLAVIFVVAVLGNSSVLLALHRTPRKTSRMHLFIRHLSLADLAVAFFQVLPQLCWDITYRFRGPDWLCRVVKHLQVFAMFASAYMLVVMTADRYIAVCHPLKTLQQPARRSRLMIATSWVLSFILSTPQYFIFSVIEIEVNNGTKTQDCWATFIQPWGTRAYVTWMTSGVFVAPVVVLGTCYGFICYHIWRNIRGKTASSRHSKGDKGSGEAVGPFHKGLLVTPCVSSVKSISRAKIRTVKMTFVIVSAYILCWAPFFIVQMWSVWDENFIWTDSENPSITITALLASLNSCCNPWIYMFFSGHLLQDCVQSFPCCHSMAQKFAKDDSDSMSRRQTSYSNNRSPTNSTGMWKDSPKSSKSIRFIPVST
Procedure: Binding Assay to Rat Hepatic V1 Receptors
Rat liver plasma membranes expressing the vasopressin V1 receptor subtypes are isolated by sucrose density gradient according to the method described by Lesko et al., (1973). These membranes are quickly suspended in 50.0 mM Tris.HCl buffer, pH 7.4, containing 0.2% bovine serum albumin (BSA) and 0.1 mM phenylmethylsulfonylfluoride (PMSF) and kept frozen at -70° C. until used in subsequent binding experiments. For binding experiments, the following is added to the wells of a ninety-six well format microtiter plate: 100 μl of 100.0 mM Tris.HCl buffer containing 10.0 mM MgCl2, 0.2% heat inactivated BSA and a mixture of protease inhibitors: leupeptin, 1.0 mg %; aprotinin, 1.0 mg %; 1,10-phenanthroiine,2.0 mg %; trypsin inhibitor, 10.0 mg % and 0.1 mM PMSF, 20.0 μl of [phenylalanyl-3,4,5, -^3 H] vasopressin (S.A. 45.1 Ci/mmole) at 0.8 nM, and the reaction initiated by the addition of 80 μl of tissue membranes containing 20 μg of tissue protein. The plates are kept undisturbed on the bench top at room temperature for 120 min. to reach equilibrium. Non-specific samples are assayed in the presence of 0.1 μM of the unlabeled antagonist phenylalanylvasopressin, added in 20.0 μl volume.
(§1) For test compounds, these are solubilized in 50% dimethylsulfoxide (DMSO) and added in 20.0 μl volume to a final incubation volume of 200 μl . Upon completion of binding, the content of each well is filtered off, using a Brandel® cell Harvester (Gaithersburg, Md.). The radioactivity trapped on the filter disk by the ligand-receptor complex is assessed by liquid scintillation counting in a Packard LS Counter, with an efficiency of 65% for tritium. The data are analyzed for IC50 values by the LUNDON-2 program for competition (LUNDON SOFTWARE, Ohio).

Vasopressin V1 = Vasopressin V1 Antagonist Activity in Conscious Rats (vasopressin vasopressor response); format: in vivo, rat; set-up: Average Change: unit not given here; conditions: 10 mg/kg i.v., SHR
Procedure: Vasopressin V1 Antagonist Activity in Conscious Rats
Conscious rats are restrained in a supine position with elastic tape. The area at the base of the tail is locally anesthetized by subcutaneous infiltration with 2% procaine (0.2 ml). Using aseptic technique the ventral caudal tail artery is isolated and a cannula made of PE 10 and 20 (heat-fused) tubing is passed into the lower abdominal aorta. The cannula is secured, heparinized (1000 i.u./cc), sealed and the wound closed with one or two stitches of Dexon 4-0. The caudal vein is also cannulated in the same manner for intravenous drug administration. The duration of the surgery is approximately 5 minutes. Additional local anesthesia (2% procaine or lidocaine) is provided as needed.
The animals are placed in plastic restraining cages in an upright position. The cannula is attached to a Statham P23Db pressure transducer and pulsatile blood pressure is recorded. […] The vasopressin injections are repeated 30,60,90,120,180,240 and 300 min. later. Percentage of antagonism by the compound is calculated using the pre-drug vasopressin vasopressor response as 100%.

[1] = target: T2, Rat Kidney Medullary V2 Receptors (Rattus norvegicus, UniProt Q00788); assay: Binding Assay to Rat Kidney Medullary V2 Receptors
T2 construct: Medullary tissues from rat kidneys are dissected out; from tissue; host or cells: rat kidney medulla membranes
T2 sequence (Q00788 whole entry): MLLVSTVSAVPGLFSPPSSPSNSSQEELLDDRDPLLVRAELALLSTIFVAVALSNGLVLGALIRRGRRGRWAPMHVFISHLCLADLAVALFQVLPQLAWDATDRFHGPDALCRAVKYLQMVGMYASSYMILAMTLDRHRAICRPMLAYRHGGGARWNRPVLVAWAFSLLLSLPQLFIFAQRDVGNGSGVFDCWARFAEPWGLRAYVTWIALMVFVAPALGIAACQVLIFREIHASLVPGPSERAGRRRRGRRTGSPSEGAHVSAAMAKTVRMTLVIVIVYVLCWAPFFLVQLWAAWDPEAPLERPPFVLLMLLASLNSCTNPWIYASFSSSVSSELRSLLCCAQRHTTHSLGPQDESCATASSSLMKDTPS
Procedure: Binding Assay to Rat Kidney Medullary V2 Receptors
Medullary tissues from rat kidneys are dissected out, cut into small pieces and soaked in a […] sodium chloride solution containing 1.0 mM EDTA with many changes of the liquid phase, until the solution is clear of blood. The tissue is homogenized in a 0.25M sucrose solution containing 1.0 mM EDTA and 0.1 mM PMSF using a Potter-Elvehjem homogenizer with a teflon pestle. The homogenate is filtered through several layers (4 layers) of cheese cloth. The filtrate is rehomogenized using a dounce homogenizer, with a tight fitting pestle. The final homogenate is centrifuged at 1500× g for 15 min. The nuclear pellet is discarded and the supernatant fluid recentrifuged at 40,000× g for 30 min. The resulting pellet formed contains a dark inner part with the exterior., slightly pink. The pink outer part is suspended in a small amount of 50.0 mM Tris. HCl buffer, pH 7.4. The protein content is determined by the Lowry's method (Lowry et al., J. Biol. Chem., 1953). The membrane suspension is stored at -70° C. in 50.0 mM Tris HCl, containing 0.2% inactivated BSA and 0.1 mM PMSF in aliquots of 1.0 ml containing 10.0 mg protein per ml of suspension until use in subsequent binding experiments.
as §1, with “The plates are left undisturbed on the bench top for 120 min to reach equilibrium. Non-specific binding is assessed in the presence of 1.0 μM of unlabeled ligand, added in 20 μl volume. For” for “For”, “μl.” for “μl .”

[2] = rat kidney medulla membranes, read-out: V2 IC50
[3] = rat liver membranes, read-out: V1 IC50

Compound: Cc1ccccc1NC(=O)Nc1ccc(C(=O)N2Cc3cccn3Cc3ccccc32)cc1 [Example 116, 10,11-Dihydro-10-[4-[[[(2-methylphenyl]amino]-carbonl]amino]benzoyl]-5H-pyrrolo[2,1-c]-[1,4]benzodiazepine]
IC50 (Rat Hepatic V1 Receptors; read-out: V1 IC50, rat liver membranes): 280 nM | % Inhibition (Vasopressin V1; VAS 0.01 i.u./kg, 30 min): 22% | Average Change (Vasopressin V1; VAS 0.01 i.u./kg, 30 min): 22.5 | % Inhibition (Vasopressin V1; VAS 0.01 i.u./kg, 60 min): 38% | Average Change (Vasopressin V1; VAS 0.01 i.u./kg, 60 min): 18 | % Inhibition (Vasopressin V1; VAS 0.01 i.u./kg, 90 min): 34% | Average Change (Vasopressin V1; VAS 0.01 i.u./kg, 90 min): 19 | % Inhibition (Vasopressin V1; VAS 0.01 i.u./kg, 120 min): 33% | Average Change (Vasopressin V1; VAS 0.01 i.u./kg, 120 min): 19.5 | % Inhibition (Vasopressin V1; VAS 0.01 i.u./kg, 180 min): 38% | Average Change (Vasopressin V1; VAS 0.01 i.u./kg, 180 min): 18 | % Inhibition (Vasopressin V1; VAS 0.01 i.u./kg, 240 min): 45% | Average Change (Vasopressin V1; VAS 0.01 i.u./kg, 240 min): 16 | % Inhibition (Vasopressin V1; VAS 0.01 i.u./kg, 300 min): 24% | Average Change (Vasopressin V1; VAS 0.01 i.u./kg, 300 min): 22 | % Inhibition (Vasopressin V1; VAS 0.02 i.u./kg, 30 min): 24% | Average Change (Vasopressin V1; VAS 0.02 i.u./kg, 30 min): 36.5 | % Inhibition (Vasopressin V1; VAS 0.02 i.u./kg, 60 min): 30% | Average Change (Vasopressin V1; VAS 0.02 i.u./kg, 60 min): 33.5 | % Inhibition (Vasopressin V1; VAS 0.02 i.u./kg, 90 min): 33% | Average Change (Vasopressin V1; VAS 0.02 i.u./kg, 90 min): 32 | % Inhibition (Vasopressin V1; VAS 0.02 i.u./kg, 120 min): 17% | Average Change (Vasopressin V1; VAS 0.02 i.u./kg, 120 min): 40 | % Inhibition (Vasopressin V1; VAS 0.02 i.u./kg, 180 min): 17% | Average Change (Vasopressin V1; VAS 0.02 i.u./kg, 180 min): 40 | % Inhibition (Vasopressin V1; VAS 0.02 i.u./kg, 240 min): 20% | Average Change (Vasopressin V1; VAS 0.02 i.u./kg, 240 min): 38.5 | % Inhibition (Vasopressin V1; VAS 0.02 i.u./kg, 300 min): 14% | Average Change (Vasopressin V1; VAS 0.02 i.u./kg, 300 min): 41.5 | IC50 [1, 2]: 85 nM

IC50 (Rat Hepatic V1 Receptors; [3]): 110 nM | IC50 [1, 2]: 5800 nM
Compound: O=C(c1ccc(NS(=O)(=O)Cc2ccccc2)cc1)N1Cc2cccn2Cc2ccccc21 [Example 494, 10-[4-[[(Phenylmethyl)sulfonyl]amino]benzoyl]-10,11-dihydro-5H-pyrrolo[2,1-c][1,4]benzodiazepine]

IC50 (Rat Hepatic V1 Receptors; [3]): 57 nM | IC50 [1, 2]: 57 nM
Compound: Cc1ccccc1C(=O)Nc1ccc(C(=O)N2Cc3ccc(CN4CCCCC4)n3Cc3ccccc32)cc1 [Example 661, N-[4-[[3-(1-piperidinylmethyl)-5H-pyrrolo[2,1-c][1,4]benzodiazepin-10(11H)-yl]carbonyl]phenyl]-2-methyl-benzamide]

IC50 (Rat Hepatic V1 Receptors; [3]): 26 nM | IC50 [1, 2]: 22 nM
Compound: O=C(Nc1ccc(C(=O)N2Cc3cccn3Cc3ccccc32)cc1)c1ccccc1C(F)(F)F [Example 91, N-[4-(5H-Pyrrolo[2,1-c][1,4]benzodiazepin-10(11H)-ylcarbonyl)phenyl]-2-(trifluoromethyl)benzamide]
% Inhibition (Vasopressin V1; VAS 0.01 i.u./kg, 30 min): 90% | Average Change (Vasopressin V1; VAS 0.01 i.u./kg, 30 min): 5 | % Inhibition (Vasopressin V1; VAS 0.01 i.u./kg, 60 min): 87% | Average Change (Vasopressin V1; VAS 0.01 i.u./kg, 60 min): 6.5 | % Inhibition (Vasopressin V1; VAS 0.01 i.u./kg, 90 min): 81% | Average Change (Vasopressin V1; VAS 0.01 i.u./kg, 90 min): 9 | % Inhibition (Vasopressin V1; VAS 0.01 i.u./kg, 120 min): 73% | Average Change (Vasopressin V1; VAS 0.01 i.u./kg, 120 min): 13 | % Inhibition (Vasopressin V1; VAS 0.01 i.u./kg, 180 min): 55% | Average Change (Vasopressin V1; VAS 0.01 i.u./kg, 180 min): 22 | % Inhibition (Vasopressin V1; VAS 0.01 i.u./kg, 240 min): 59% | Average Change (Vasopressin V1; VAS 0.01 i.u./kg, 240 min): 20 | % Inhibition (Vasopressin V1; VAS 0.01 i.u./kg, 300 min): 66% | Average Change (Vasopressin V1; VAS 0.01 i.u./kg, 300 min): 16.5 | % Inhibition (Vasopressin V1; VAS 0.02 i.u./kg, 30 min): 88% | Average Change (Vasopressin V1; VAS 0.02 i.u./kg, 30 min): 7.5 | % Inhibition (Vasopressin V1; VAS 0.02 i.u./kg, 60 min): 89% | Average Change (Vasopressin V1; VAS 0.02 i.u./kg, 60 min): 7 | % Inhibition (Vasopressin V1; VAS 0.02 i.u./kg, 90 min): 80% | Average Change (Vasopressin V1; VAS 0.02 i.u./kg, 90 min): 12.5 | % Inhibition (Vasopressin V1; VAS 0.02 i.u./kg, 120 min): 72% | Average Change (Vasopressin V1; VAS 0.02 i.u./kg, 120 min): 17.5 | % Inhibition (Vasopressin V1; VAS 0.02 i.u./kg, 180 min): 54% | Average Change (Vasopressin V1; VAS 0.02 i.u./kg, 180 min): 29 | % Inhibition (Vasopressin V1; VAS 0.02 i.u./kg, 240 min): 53% | Average Change (Vasopressin V1; VAS 0.02 i.u./kg, 240 min): 29.5 | % Inhibition (Vasopressin V1; VAS 0.02 i.u./kg, 300 min): 48% | Average Change (Vasopressin V1; VAS 0.02 i.u./kg, 300 min): 32.5

IC50 (Rat Hepatic V1 Receptors; [3]): 165 nM | IC50 [1, 2]: 350 nM
Compound: Cc1ccc(C(=O)Nc2ccc(C(=O)N3Cc4cccn4Cc4ccccc43)cc2)s1 [Example 355, N-[4-(5H-Pyrrolo[2,1-c][1,4]benzodiazepin-10(11)ylcarbonyl)phenyl]-5-methyl-2-thiophenecarboxamide]

inhibition at 1 µM (Rat Hepatic V1 Receptors; 2 h, 1 μM, rat): 19% | inhibition at 1 µM ([1]; 1 μM, rat): 100%
Compound: O=C(Nc1ccc(C(=O)N2Cc3cccn3Cc3ccccc32)c(Cl)c1)c1cccc(C(F)(F)F)c1F [Example 699, N-[4-(5H-pyrrolo[2,1-c][1,4]benzodiazepin-10(11H)-ylcarbonyl)-3-chloro-phenyl]-2-fluoro-3-(trifluoromethyl)benzamide]

IC50 (Rat Hepatic V1 Receptors; [3]): 73 nM | IC50 [1, 2]: 64 nM
Compound: Cc1ccccc1C(=O)Nc1ccc(C(=O)N2Cc3ccc(CN(C)C)n3Cc3ccccc32)cc1 [Example 660]

IC50 (Rat Hepatic V1 Receptors; [3]): 140 nM | inhibition at 10 µM ([1]; 10 μM, rat): 68%
Compound: O=C(c1ccc(NS(=O)(=O)c2cc(Cl)ccc2Cl)cc1)N1Cc2cccn2Cc2ccccc21 [Example 493, 10-[4-[[(2,5-Dichlorophenyl)sulfonyl]amino]benzoyl]-10,11-dihydro-5H-pyrrolo[2,1-c][1,4]benzodiazepine]

IC50 (Rat Hepatic V1 Receptors; [3]): 9 nM | IC50 [1, 2]: 25 nM
Compound: Cc1ccccc1C(=O)Nc1ccc(C(=O)N2Cc3ccc(CN4CCN(Cc5ccccc5)CC4)n3Cc3ccccc32)cc1 [Example 663, N-[4-[[3-[[4-(phenylmethyl)-1-piperazinyl]methyl]-5H-pyrrolo[2,1-c][1,4]-benzodiazepin-10(11H)-yl]carbonyl]-phenyl]-2-methylbenzamide]

IC50 (Rat Hepatic V1 Receptors; [3]): 2400 nM | IC50 [1, 2]: 120 nM
Compound: Cc1ccccc1C(=O)Nc1ccc(C(=O)N2Cc3cccn3C(=O)c3ccccc32)cc1 [Example 40, 2-Methyl-N-[4-[(5-oxo-5H-pyrrolo[2,1-c]-[1,4]benzodiazepin 10(11H)-yl)carbonyl]phenyl]benzamide]

IC50 (Rat Hepatic V1 Receptors; [3]): 40 nM | IC50 [1, 2]: 35 nM
Compound: Cc1ccccc1C(=O)Nc1ccc(C(=O)N2Cc3ccc(CN4CCOCC4)n3Cc3ccccc32)cc1 [Example 662, N-[4-[[3-(4-morpholinomethyl)-5H-pyrrolo[2,1-c][1,4]benzodiazepin-10(11H)-yl]carbonyl]phenyl]-2-methyl-benzamide]

Compound: O=C(c1ccc(NP(=O)(Oc2ccccc2)Oc2ccccc2)cc1)N1Cc2cccn2Cc2ccccc21 [Example 492]
IC50 (Rat Hepatic V1 Receptors): 160 nM | IC50 [1]: 3200 nM

IC50 (Rat Hepatic V1 Receptors; [3]): 1100 nM | IC50 [1, 2]: 290 nM
Compound: CC(=O)c1ccc2n1Cc1ccccc1N(C(=O)c1ccc(NC(=O)c3ccc(Cl)cc3Cl)cc1)C2 [Example 670, N-[4-[(3-Acetyl-5H-pyrrolo[2,1-c][1,4]benzodiazepin-10(11H)-yl]carbonyl]phenyl]-2,4-dichlorobenzamide]
